Experimental data taken from patent US9603922B2, “Modulation of NKT cell activity with antigen-loaded CD1d molecules” (VACCINEX, INC., priority 2007, dated 2017).

Legend:
iNKT cells [1] = test: Activity in vitro of ceramide-like glycolipid antigens (Table 3); type: cell-based, mouse; details: partly also in vivo
Description: The ability of a composition of the present invention to modulate an immune response can be readily determined by an in vitro assay. NKT cells for use in the assays include transformed NKT cell lines, or NKT cells which are isolated from a mammal, e.g., from a human or from a rodent such as a mouse. NKT cells can be isolated from a mammal by sorting cells that bind CD1d:α-GalCer tetramers.
The NKT cells employed in the assays are incubated under conditions suitable for proliferation. […] Serial dilutions of the compound can be added to the NKT cell culture medium.
(§1) Alternatively, rather than measurement of an expressed protein such as IL-4 or IFN-γ, modulation of NKT cell activation can be determined by changes in antigen-dependent T cell proliferation as measured by radiolabelling techniques as are recognized in the art. For example, a labeled (e.g., tritiated) nucleotide may be introduced to an assay culture medium. Incorporation of such a tagged nucleotide into DNA serves as a measure of T cell proliferation. […] A difference in the level of T cell proliferation following contact with the compound of the invention indicates the complex modulates activity of the T cells. For example, a decrease in NKT cell proliferation indicates the compound can suppress an immune response. An increase in NKT cell proliferation indicates the compound can stimulate an immune response.

iNKT cells [2] = test: Activity in vivo of ceramide-like glycolipid antigens, serum cytokine response (Table 3); details: serum cytokines
Excerpt: In vivo assays also may be suitably employed to determine the ability of a composition of the invention to modulate the activity of NKT cells. For example, a composition of interest can be assayed for its ability to stimulate NKT cell activation or inhibit tumor growth. For example, a composition of the invention can be administered to a mammal such as a mouse, before or after challenge with a tumorigenic dose of transformed cells and the presence or size of growing tumors may be monitored.

[3] = test system: mouse iNKT hybridoma / human CD1d + HeLa cells; test: Presentation to mouse iNKT hybridoma by human CD1d + HeLa cells (Table 3 comments); type: cell-based
SLE in NZB/W F1 mice = SLE in NZB/W F1 mice (Table 3 comments); type: in vivo, mouse
splenocytes = test: Splenocyte stimulation assay: proliferation and cytokine secretion (Table 3 comments); type: cell-based, mouse; details: for Comments: IL-4 relative to IFNγ: in vitro with splenocytes from NZB/W F1 mice; for Comments: cytokine secretion (IL-4, IFNγ): cytokine secretion assays
Excerpt: (§2) The ability of a composition of the present invention to modulate an immune response can be readily determined by an in vitro assay. NKT cells for use in the assays include transformed NKT cell lines, or NKT cells which are isolated from a mammal, e.g., from a human or from a rodent such as a mouse. NKT cells can be isolated from a mammal by sorting cells that bind CD1d:α-GalCer tetramers. See, for example, Benlagha et al., J Exp Med 191 (2000), pp. 1895-1903; Matsuda et al., J Exp Med 192 (2000), pp. 741-754; and Karadimitris et al., Proc Natl Acad Sci USA 98 (2001), pp. 3294-3298. A suitable assay to determine if a compound of the present invention is capable of modulating the activity of NKT cells is conducted by coculturing NKT cells and antigen presenting cells, adding the particular compound of interest to the culture medium that targets either the antigen presenting cells or the NKT cells directly, and measuring IL-4 or IFN-γ production. A significant increase or decrease in IL-4 or IFN-γ production over the same co-culture of cells in the absence of the compound of the invention or, preferably, in the presence of a compound of the invention with a non-targeting antibody indicates stimulation or inhibition of NKT cells.
as §1

human iNKT cells = test: Recognition by human iNKT cells (Table 3 comments); type: cell-based
mouse iNKT hybridoma = test: iNKT hybridoma stimulation assay (Table 3 comments); type: cell-based
Excerpt: as §2
The NKT cells employed in the assays are incubated under conditions suitable for proliferation. For example, an NKT cell hybridoma is suitably incubated at about 37° C. and 5% CO2 in complete culture medium (RPMI 1640 supplemented with 10% FBS, penicillin/streptomycin, L-glutamine and 5×10−5 M 2-mercaptoethanol). Serial dilutions of the compound can be added to the NKT cell culture medium.

iNKT cells [4] = details: reported by others, in vivo IFNγ; cited from earlier work

SMILES: CCCCCCCCCCCCCC[C@@H](O)[C@@H](O)[C@H](COC1OC(CO)C(O)C(O)C1O)NC(=O)C(c1ccccc1)c1ccccc1 (stereo partly drawn) [YTC03-17]
- Comments: iNKT agonist activity and cytokine profile in words (iNKT cells [1]): Very strong agonist in some in vitro studies
- Comments: in vivo cytokine response in words (iNKT cells [2]): no activity detectable in vivo (cytokine stimulation)

SMILES: CCCCCCCCCCCCCCCCCC(=O)N[C@@H](COC1OC(CO)C(O)C(O)C1O)[C@H](O)[C@H](O)CCCCCCCCCCCCCC (stereo partly drawn) [YTC03-15]
- Comments: activity when presented to mouse iNKT hybridoma by human CD1d + HeLa cells [3]: EXTREMELY active when presented to mouse iNKT hybridoma by human CD1d + HeLa cells

SMILES: CCCCCCCCCCCCCCCCCCCCCCCC(=O)N[C@@H](COC1OC(C)[C@@H](O)C(O)C1O)[C@H](O)[C@H](O)CCCCCCCCCCCCCC (stereo partly drawn) [DB03-8]
- Comments: iNKT agonist activity and cytokine profile in words (iNKT cells [1]): Weak iNKT agonist activity in vitro
- Comments: in vivo cytokine response in words (iNKT cells [2]): No serum cytokine response in vivo
- Comments: effect on SLE (SLE in NZB/W F1 mice): exacerbates SLE in NZB/W F1 mice

SMILES: CCCCCCCCCCCCCC[C@@H](O)[C@@H](O)[C@H](COC1OC(CO)C(O)C(O)C1O)NC(=O)Cc1ccc(F)cc1 (stereo partly drawn) [YTC03-30]
- Comments: IL-4 relative to IFNγ (splenocytes): Possible enhanced IL-4 relative to IFNγ
- Comments: activity when presented to mouse iNKT hybridoma by human CD1d + HeLa cells [3]: EXTREMELY active

SMILES: CCCCCCCCCCCCCCCCCCCCCCCCCC(=O)N[C@@H](COC1OC(C)[C@@H](O)C(O)C1O)[C@H](O)[C@H](O)CCCCCCCCCCCCCC (stereo partly drawn) [DB06-14]
- Comments: cytokine secretion (IL-4, IFNγ) (splenocytes): moderate IL-4 secretion at high concentration with weak IFNg
- Comments: activity in splenocyte stimulation assay (splenocytes; overall activity): Weakly active in splenocyte stimulation in vitro
- Comments: splenocyte proliferation (splenocytes): Minimal or no prolif

SMILES: CCCCCCCCCCCCCCCCCCCCCCCC(=O)N[C@@H](COC1OC(CO)C(O)C(O)C1O)[C@H](O)[C@H](O)CCCCC (stereo partly drawn) [AH04-1, reference compound]
- Comments: iNKT agonist activity and cytokine profile in words (iNKT cells [1]): Weaker agonist than DB03-4 in our hands, and skewing of cytokine response not very impressive in most assays
- Comments: recognition by human iNKT cells (human iNKT cells): seems NOT to be recognized by human iNKT cells

SMILES: CCCCC/C=C\C/C=C\C/C=C\C/C=C\CCCC(=O)N[C@@H](COC1OC(CO)C(O)C(O)C1O)[C@H](O)[C@H](O)CCCCCCCCCCCCCC (stereo partly drawn) [DB03-5]
- Comments: iNKT agonist activity and cytokine profile in words (iNKT cells [1]): “Type 2 Cytokine bias”: Strong inducer of iNKT cell IL-4 response, with blunted IFNγ and NK cell transactivation.

SMILES: CCCCCCCCCCCCCCCCCCCCCCCCCC(=O)N[C@@H](CSC1OC(CO)C(O)C(O)C1O)[C@H](O)[C@H](O)CCCCCCCCCCCCCC (stereo partly drawn) [SKRN 7000, reference compound]
- Comments: activity in iNKT hybridoma stimulation assay (mouse iNKT hybridoma): No agonist activity in iNKT hybridoma assay
- Comments: autoreactivity of iNKT cell hybridoma (mouse iNKT hybridoma): seemed to reduce autoreactivity of iNKT cell hybridoma

SMILES: CCCCCCCCCCCCCC[C@@H](O)[C@@H](O)[C@H](COC1OC(CO)C(O)C(O)C1O)NC(=O)CCCCCCCCC (stereo partly drawn) [YTC03-34]
- Comments: in vivo cytokine response in words (iNKT cells [2]): Active in vivo with good IL-4 production assoc. with weak IFNgamma and weak IL-12 p70
- Comments: activity in iNKT hybridoma stimulation assay (mouse iNKT hybridoma): Moderate activity with mouse iNKT hybridoma

SMILES: CCCC/C=C/C=C/C=C\CCCCCCCC(=O)N[C@@H](COC1OC(CO)C(O)C(O)C1O)[C@H](O)[C@H](O)CCCCCCCCCCCCCC (stereo partly drawn) [DB05-17]
- Comments: cytokine secretion (IL-4, IFNγ) (splenocytes): moderately strong in cytokine secretion assays with moderate IL-4 predominance
- Comments: splenocyte proliferation (splenocytes): Weak in splenocyte prolif

SMILES: CCCCCCCCCCCCCCCCCCCCCCCC(=O)N[C@@H](COC1OC(CO)C(O)C(O)C1O)[C@H](O)[C@H](O)CCCCCCCCCCCCCC (stereo partly drawn) [DB02-1]
- Comments: iNKT agonist activity and cytokine profile in words (iNKT cells [1]): Moderate to weak iNKT agonist in vitro and in vivo. Gives reasonably strong early IL-4 response, with reduced late IFNγ like DB03-4 or OCH.

SMILES: CCCCC/C=C\C/C=C\CCCCCCCCCC(=O)N[C@@H](COC1OC(CO)C(O)C(O)C1O)[C@H](O)[C@H](O)CCCCCCCCCCCCCC (stereo partly drawn) [DB06-15]
- Comments: cytokine secretion (IL-4, IFNγ) (splenocytes): Weak IL-4 and even weaker INFg secretion
- Comments: splenocyte proliferation (splenocytes): Moderately active in splenocyte prolif

SMILES: CCCCCCCCCCCCCCCCCCCCCCCCCC(=O)N[C@@H](COC1OC(CO)C(O)C(O)C1O)[C@H](O)[C@H](O)CCCCCCCCCCCCCC (stereo partly drawn) [DB04-1 (KRN 7000), reference compound]
- Comments: iNKT agonist activity and cytokine profile in words (iNKT cells [1]): KRN7000. Strong agonist, mixed IL-4 and IFNγ response both in vivo and in vitro.

SMILES: CCCCC\C=C/C=C/C=C/CCCCCCC(=O)N[C@@H](COC1OC(CO)C(O)C(O)C1O)[C@H](O)[C@H](O)CCCCCCCCCCCCCC (stereo partly drawn) [DB05-14]
- Comments: cytokine secretion (IL-4, IFNγ) (splenocytes): strong IL-4 secretion bias
- Comments: splenocyte proliferation (splenocytes): Very active in prolif

SMILES: CCCCCCCCCCCCCC[C@@H](O)[C@@H](O)[C@H](COC1OC(CO)C(O)C(O)C1O)NC(=O)Cc1ccc(OC)c(OC)c1 (stereo partly drawn) [YTC03-24]
- Comments: IL-4 relative to IFNγ (splenocytes): Possible enhanced IL-4 relative to IFNγ in vitro with splenocytes from NZB/W F1 mice

SMILES: CCCCCC/C=C\C=C/CCCCCCCC(=O)N[C@@H](COC1OC(CO)C(O)C(O)C1O)[C@H](O)[C@H](O)CCCCCCCCCCCCCC (stereo partly drawn) [DB05-11]
- Comments: iNKT agonist activity and cytokine profile in words (iNKT cells [1]): A potent Th2-biased analogue similar to DB05-9
- Comments: splenocyte proliferation (splenocytes): possibly more active in proliferation assay

SMILES: CCCCCCCCCCCCCCCCCCCCCCCC(=O)N[C@@H](COC1OC(CO)C(O)C(O)C1O)[C@H](O)CCCCCC (stereo partly drawn) [AH04-2]
- Comments: activity in iNKT hybridoma stimulation assay (mouse iNKT hybridoma): About a half log more potent than OCH in hybridoma stimulation assay

SMILES: CCCC/C=C\C/C=C\CCCCCCCCCC(=O)N[C@@H](COC1OC(CO)C(O)C(O)C1O)[C@H](O)[C@H](O)CCCCCCCCCCCCCC (stereo partly drawn) [DB03-4]
- Comments: iNKT agonist activity and cytokine profile in words (iNKT cells [1]): “Type 2 Cytokine bias”: Strong inducer of iNKT cell IL-4 response, with blunted IFNγ and NK cell transactivation.

SMILES: CCCCCCCCCCCCCCCCCCCCCCCCCC(=O)N[C@@H](CCC1OC(CO)C(O)C(O)C1O)[C@H](O)[C@H](O)CCCCCCCCCCCCCC (stereo partly drawn) [RF03-1]
- Comments: reported agonist activity (iNKT cells [4]): C-glycoside of KRN7000. Reported to be strong agonist, with enhanced IFNγ production in vivo. May have slower kinetics of activation.

SMILES: CCCCC/C=C\C=C\CCCCCCCCC(=O)N[C@@H](COC1OC(CO)C(O)C(O)C1O)[C@H](O)[C@H](O)CCCCCCCCCCCCCC (stereo partly drawn) [DB05-9]
- Comments: iNKT agonist activity and cytokine profile in words (iNKT cells [1]): A potent Th2-biased agonist in vitro. Not tested yet in vivo (122206)
